# Results as given in patent US4910195A, “Dihydropyridine derivatives” (Green Cross Corporation, priority 1986, dated 1990).
# Experiment: Hypotensive effect, systolic pressure by indirect tail-cuff method without anesthesia, oral administration
# Assay type: in vivo, male rats, 10- to 11-week-old
# Details: rats, 10 mg/kg, suspended in 10% HCO-60
# Method: An experiment was conducted to investigate the hypotensive effects of the dihydropyridine derivatives (I) and acid addition salts thereof on 10- to 11-week-old male rats (3 to 5 animals per group).
# For blood pressure determination, systolic pressure was measured without anesthesia by an indirect tail-cuff method using a sphygmomanometer (PE-300, Narco Bio-System).
# Each of the test compounds was suspended in 10% HCO-60 (polyoxyethylated castor oil produced by Nikko Chemicals K.K.) and administered orally to the animals in a dose of 10 mg/kg. Blood pressure measurements were conducted at predetermined time intervals.
compound,measurement,value
COC(=O)C1=C(C)NC(C)=C(C(=O)OCCN(C)Cc2ccccc2)C1c1cccc([N+](=O)[O-])c1 (centres unmarked) [nicardipine],50% recovery time (time required for the reduced blood pressure to return to half the maximal reduction),3.1 h
same,maximum blood pressure fall,20%
